The record followed here is PubChem BioAssay AID2060509 (Molecular Pharmacology Branch, DTP, NCI, 2025).

The subject of the experiment is 485176-168-R4-J1-PDC spheroids with HUVEC/MSC, viability. Put plainly: Anticancer human tumor 485176-168-R4-J1-PDC patient-derived pancreatic adenocarcinoma cell line growth inhibition [GQUAD]. Conditions: for viability, T/C: stronger effect = lower value. In short, it runs like this:
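Tumor cells were grown as complex spheroids with HUVEC endothelial cells and mesenchymal stem cells as stroma. G-quadruplex stabilizers were combined with targeted agents over half-log dilutions from near the clinical Cmax, or from 10 microM.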

Where [1] appears, read: curve of first compound, second compound 0.0316 µM.
Setting [2] is: curve of first compound, second compound 0.1 µM.
Where [3] appears, read: curve of first compound, second compound 0.316 µM.
[4] abbreviates: curve of first compound, second compound 1 µM.
[5] abbreviates: curve of first compound, second compound 3.16 µM.
Where [6] appears, read: curve of first compound, second compound 10 µM.
Where [7] appears, read: second compound 0.0316 µM, first compound 0.000999 µM.
Where [8] appears, read: second compound 0.0316 µM, first compound 0.00316 µM.
Where [9] appears, read: second compound 0.0316 µM, first compound 0.00999 µM.
The mark [10] stands for this setting: second compound 0.0316 µM, first compound 0.0316 µM.
Setting [11] is: second compound 0.0316 µM, first compound 0.0999 µM.
Where [12] appears, read: second compound 0.0316 µM, first compound 0.316 µM.
[13] abbreviates: second compound 0.1 µM, first compound 0.000999 µM.
The mark [14] stands for this setting: second compound 0.1 µM, first compound 0.00316 µM.
[15] abbreviates: second compound 0.1 µM, first compound 0.00999 µM.
[16] abbreviates: second compound 0.1 µM, first compound 0.0316 µM.
[17] abbreviates: second compound 0.1 µM, first compound 0.0999 µM.
Setting [18] is: second compound 0.1 µM, first compound 0.316 µM.
The mark [19] stands for this setting: second compound 0.316 µM, first compound 0.000999 µM.
Setting [20] is: second compound 0.316 µM, first compound 0.00316 µM.
[21] abbreviates: second compound 0.316 µM, first compound 0.00999 µM.
Where [22] appears, read: second compound 0.316 µM, first compound 0.0316 µM.
Where [23] appears, read: second compound 0.316 µM, first compound 0.0999 µM.
The mark [24] stands for this setting: second compound 0.316 µM, first compound 0.316 µM.
[25] abbreviates: second compound 1 µM, first compound 0.000999 µM.
The mark [26] stands for this setting: second compound 1 µM, first compound 0.00316 µM.
Where [27] appears, read: second compound 1 µM, first compound 0.00999 µM.
The mark [28] stands for this setting: second compound 1 µM, first compound 0.0316 µM.
[29] abbreviates: second compound 1 µM, first compound 0.0999 µM.
The mark [30] stands for this setting: second compound 1 µM, first compound 0.316 µM.
Setting [31] is: second compound 3.16 µM, first compound 0.000999 µM.
[32] abbreviates: second compound 3.16 µM, first compound 0.00316 µM.
Setting [33] is: second compound 3.16 µM, first compound 0.00999 µM.
The mark [34] stands for this setting: second compound 3.16 µM, first compound 0.0316 µM.
Where [35] appears, read: second compound 3.16 µM, first compound 0.0999 µM.
Where [36] appears, read: second compound 3.16 µM, first compound 0.316 µM.
Setting [37] is: second compound 10 µM, first compound 0.000999 µM.
Where [38] appears, read: second compound 10 µM, first compound 0.00316 µM.
Setting [39] is: second compound 10 µM, first compound 0.00999 µM.
[40] abbreviates: second compound 10 µM, first compound 0.0316 µM.
Where [41] appears, read: second compound 10 µM, first compound 0.0999 µM.
Where [42] appears, read: second compound 10 µM, first compound 0.316 µM.
The mark [43] stands for this setting: compound alone, run of 03/18/2024.

Each structure is given as a SMILES string. Values joined by “and” are separate entries in the source; they are usually repeats but may differ in a detail not shown here. Equal entries are not always repeated.
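Note: spheroids exposed to compounds for seven days before readout.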
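Throughout, for viability, T/C: percent viability relative to DMSO vehicle control wells as 100%.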

The IC50 is the concentration needed to halve the response being measured. What is called viability, T/C is the ratio of treated to control. `CCc1c2c(nc3ccc(O)cc13)-c1cc3c(c(=O)n1C2)COC(=O)[C@]3(O)CC` + CN(C)c1ccc(Nc2c3ccc(NC(=O)CCN4CCCC4)cc3nc3cc(NC(=O)CCN4CCCC4)ccc23)cc1: the IC50 under setting [1] turned out to be 6.98 nM; the IC50 under setting [2] stood at 9.32 nM; the IC50 under setting [3] amounted to 9.31 nM; the IC50 under setting [4] was determined as 7.26 nM; the IC50 under setting [5] worked out at 11.2 nM; the IC50 under setting [6] was 7.71 nM. For the same compound, the viability, T/C is 87.7% under setting [7]; 68.4% under setting [8]; 38.3% under setting [9]; 28.5% under setting [10]; 13.5% under setting [11]; 6% under setting [12]. Further, the viability, T/C is 77.8% under setting [13]; 67.9% under setting [14]; 48.1% under setting [15]; 28.6% under setting [16]; 11.2% under setting [17]; 5.98% under setting [18]. For the same compound, the viability, T/C reads like this: under setting [19], 91.1%; under setting [20], 86.8%; under setting [21], 41.8%; under setting [22], 27.6%; under setting [23], 12.9%; under setting [24], 6.92%. Further, the viability, T/C runs as follows: under setting [25], 103%; under setting [26], 58%; under setting [27], 50.7%; under setting [28], 28.1%; under setting [29], 13.8%; under setting [30], 6.15%. Moreover, the viability, T/C is 88.8% under setting [31]; 88% under setting [32]; 43.4% under setting [33]; 34.2% under setting [34]; 14.3% under setting [35]; 8.88% under setting [36]. The viability, T/C was 80.3% under setting [37]; 61% under setting [38]; 45.3% under setting [39]; 34.1% under setting [40]; 19.3% under setting [41]; 8.05% under setting [42].
Consider `CC1COCCN1c1cc(-c2ccnn2C)c2ccnc(-c3ccn[nH]3)c2n1` (centres undefined), for which the viability, T/C (compound 0.0316 µM) was 76.2% and 71.6% and 87.6%; the viability, T/C (compound 0.1 µM) was 39.2% and 47.5% and 37.8%; the viability, T/C (compound 0.316 µM) is 18.1% and 14.2% and 15.9%; the viability, T/C (compound 1 µM) was 10.4% and 10.2% and 9.3%; the viability, T/C (compound 3.16 µM) was 11.3% and 9.69% and 10%; the viability, T/C (compound 10 µM) is 11.9% and 12.4% and 10.7%. Further, the IC50 (curve of compound) is 71.6 nM and 88.8 nM and 75.5 nM.
Turning to `Cc1[nH]c2ccc(F)cc2c1-c1nc2c3cccnc3c3ncccc3c2[nH]1`, the viability, T/C was 101% [middle of 12 runs] (compound 0.1 µM), 97.9% [middle of 12 runs] (compound 0.316 µM), 99.5% [middle of 12 runs] (compound 1 µM) and 78.8% [middle of 12 runs] (compound 10 µM). For the same compound, the IC50 runs as follows: under setting [43], over 10000 nM; (compound alone, run of 03/26/2024) over 10000 nM.
Regarding `CCc1c2c(nc3ccc(O)cc13)-c1cc3c(c(=O)n1C2)COC(=O)[C@]3(O)CC` + Cc1[nH]c2ccc(F)cc2c1-c1nc2c3cccnc3c3ncccc3c2[nH]1, the IC50 runs as follows: under setting [1], 4.64 nM; under setting [2], 5.56 nM; under setting [3], 7.02 nM; under setting [4], 6.08 nM; under setting [5], 7.23 nM; under setting [6], 4.06 nM. For the same compound, the viability, T/C is 76.6% under setting [7]; 58.1% under setting [8]; 35.2% under setting [9]; 20.1% under setting [10]; 17.6% under setting [11]; 6.23% under setting [12]. Further, the viability, T/C is 78.8% under setting [13]; 62.2% under setting [14]; 35.6% under setting [15]; 27.4% under setting [16]; 10.9% under setting [17]; 5.79% under setting [18]. Further, the viability, T/C runs as follows: under setting [19], 83.4%; under setting [20], 71.4%; under setting [21], 38.2%; under setting [22], 22.4%; under setting [23], 15.7%; under setting [24], 3.93%. The viability, T/C is, setting by setting: under setting [25], 71.4%; under setting [26], 60.9%; under setting [27], 41.6%; under setting [28], 23.8%; under setting [29], 12.5%; under setting [30], 7.51%. In addition, the viability, T/C runs as follows: under setting [31], 98.3%; under setting [32], 73.2%; under setting [33], 38.1%; under setting [34], 24.4%; under setting [35], 13.3%; under setting [36], 5.95%. Also, the viability, T/C reads like this: under setting [37], 76.1%; under setting [38], 50%; under setting [39], 37.8%; under setting [40], 27.7%; under setting [41], 10.8%; under setting [42], 6.05%.
As to `Cc1cnc(CNC(=O)c2c(=O)c3ccc(N4CCCN(C)CC4)nc3n3c2sc2ccccc23)cn1`, the viability, T/C by setting is: (compound 0.0316 µM) 90.3% [middle of 12 runs]; (compound 0.1 µM) 78.8% [middle of 12 runs]; (compound 0.316 µM) 64.4% [middle of 12 runs]; (compound 1 µM) 55% [middle of 12 runs]; (compound 3.16 µM) 39.6% [middle of 12 runs]; (compound 10 µM) 36.6% [middle of 12 runs]. The IC50 under setting [43] was 1.17 µM [middle of 10 runs].
